According to PMC3912015, “Synthetic Multivalent Antifungal Peptides Effective against Fungi” (PLoS ONE, 2014):
Values after ≈ are worked out from the molar mass of the structure shown. Where two headings read alike, the source gives them in different places.

What was measured:
C. albicans ATCC10231 = experiment: microbe, parasite or virus in culture; format: cell-based; conditions: Candida albicans
Experimental: (§1) The yeast strains were cultivated and suspended in Sabouraud’s Dextrose (SD) broth diluted to one sixth at a starting OD600 = ∼0.08 in a flat-bottomed microtitre plate. A serial dilution of peptide in the same broth was mixed with the inoculum to give a final peptide concentration of 0.4–22 µM. The antifungal activity was assessed by monitoring the OD600 in cycles of 30 minutes and an orbital shaking at 100 rpm using an Infinite M200 microplate reader (Tecan Group Ltd., Switzerland) for 24/48 h at 37°C. Cultures without peptides were used as positive controls and broth alone or with 22 µM peptide served as negative controls. The minimum concentration required for complete inhibition was assessed by both visible observations as well as by measuring the OD600 and taken as the MIC. Each experiment was repeated in triplicates. For studying the effects of metal ions, SD broth was adjusted with appropriate concentrations of salts to yield a final concentration of 100 and 135 mM for NaCl and KCl and 0.5–2 mM for CaCl2 and MgCl2. MIC determinations were carried out as described above. C. albicans ATCC10231 cells and salts in broth were taken as a positive control. Salts alone (NaCl, KCl, and CaCl2 and MgCl2) in broth or with 22 µM peptide served as a negative control. The effect of 5% human serum on the activities of B4010 against two C. albicans clinical isolates was determined. The human male serum was centrifuged at 13,000 rpm for 10 mins in order to remove the lipids and the supernatant was collected. The MIC values against clinical isolates of C. albicans 2672R and C. albicans 1976R were determined both in standard medium (SD broth) as well as in standard medium containing 5% serum supernatant as before.

C. albicans ATCC2091 = experiment: microbe, parasite or virus in culture; format: cell-based; conditions: Candida albicans
Experimental: as §1

C. albicans ATCC24433 = experiment: microbe, parasite or virus in culture; format: cell-based; conditions: Candida albicans
Experimental: as §1

C. albicans DF1976R = experiment: microbe, parasite or virus in culture; format: cell-based; conditions: Candida albicans
Experimental: as §1

C. albicans DF2672R [1] = experiment: microbe, parasite or virus in culture; format: cell-based; conditions: Candida albicans
Experimental: as §1

[2] = test system: clinical isolates of C. albicans 2672R and C. albicans 1976R; experiment: MIC against two clinical isolates, with or without 5% human serum; format: cell-based; conditions: Candida albicans; standard medium without serum
Experimental: as §1

C. albicans DF2672R [3] = experiment: Time-kill kinetics assay; format: cell-based
Experimental: (§2) The time-kill kinetics of B4010 was determined against two strains of C. albicans (ATCC 10231 and DF2672R). The cultures were grown overnight in SD broth and the cell concentration was adjusted to 10^5–10^6 CFU/mL with phosphate buffer. The peptide or antifungals were added to the individual cultures. […] The test solution was incubated at 37°C with constant shaking. 100 µL of the suspension was withdrawn at predetermined time points, serially diluted (10^2 or 10^3 fold) and poured into the SDA plate. The plate was incubated for 48 h at 37°C for colony counting. The data were expressed in terms of % fungal viability relative to the positive control.

rabbit red blood cells = experiment: Haemolytic assay; format: cell-based; conditions: 4% rabbit erythrocytes, 1 h
Experimental: Haemolytic activity of peptides and antifungal drugs were determined against rabbit red blood cells. Briefly, serial dilution of peptides/antifungals in PBS was mixed with rRBC (final concentration 4% v/v), incubated at 37°C for 1 h and centrifuged at 3000 rpm for 10 minutes. The release of hemoglobin in the supernatant was monitored by measuring the hemoglobin absorbance at 576 nm. The readings from cell suspension in PBS (without any additives) or 1% Triton-X100 were used as 0% or 100% haemolysis.

[4] = test system: human conjunctival epithelial cells (IOBA-NHC); experiment: cells; format: cell-based; conditions: Homo sapiens, Epithelial cell, 24 h, 24 h exposure; read-out: EC50 (effective concentration required to kill 50% of human conjunctival epithelial cells)
Experimental: Immortalized normal human conjunctival epithelial cells (IOBANHC) were a gift from Yolanda Diebold at the University of Valladolid, Spain [31]. IOBA-NHC cells were cultured under standard conditions (humidified atmosphere of 5% CO2 at 37°C) in DMEM/F12 supplemented with 1 µg/ml bovine pancreas insulin, 2 ng/ml mouse epidermal growth factor, 0.1 µg/ml cholera toxin, 5 µg/ml hydrocortisone, 10% fetal bovine serum (FBS), 50 UI/ml penicillin, and 50 UI/ml streptomycin. Cells from passages 50–80 were used in all experiments. Every day, normal culture development was observed by phase-contrast microscopy. Cells were removed by gentle trypsin incubation at confluence and counted. They were seeded into 96 well culture plates (Corning, Schiphol-Rijk, The Netherlands) for microtitration analysis of flow cytotoxicity assay (∼10,000 cells/well). Cultures were kept at 37°C for 24 h. Subconfluent cells (culture surface covering nearly 70%) were then exposed to various peptide concentrations (0.22–225 µM). Cytotoxicity was measured periodically using MultiTox-Fluor Multiplex assay kit (Promega, WI, USA) by measuring the AFC fluorescence (λex = 485 and λem = 520 nm). We report the cell viability after 24 h incubation of the cells with the peptides since there was no detectable toxicity even after 8 h of incubation.

[5] = format: biochemical
Experimental: Small unilamellar vesicles (SUVs) were prepared using PC/PE/PI or PS lipids (5∶2.5∶2.5) containing 15 wt% ergosterol or PC/Cholesterol (10∶1). For the preparation of PC/PE/PI or PS/Erg SUV, the lipids were dissolved in chloroform/methanol (2∶1, v/v) in a glass tube. Ergosterol was dissolved in same solvent and added to lipid mixture to make final ergosterol content of 15 wt%. The Lipid-ergosterol mixture was dried using nitrogen gas to form lipid layer. The film was hydrated in a buffer containing 20 mM PBS (pH 7), vortexed and sonicated. Each cycle of sonication (5 sec, 40°C) was followed by freezing in liquid nitrogen and thawing on a water bath kept at 37°C. The procedure was repeated 5–6 times until an optically clear dispersion appeared. The SUV was divided into two parts. To the first part 50 mM calcein was added and incubated for 1 h. The excess calcein was removed by injecting 100 µL of the calcien-loaded SUV’s into a Ultrahydrogel™ 250 (7.8 mm × 300 mm) column equilibrated with 20 mM PBS (pH 7.0) and eluted isochratically at a flow rate of 1 mL/min for 1.5 column volumes. The calcein-loaded liposomes were mixed with calcein-free liposome (1∶1) to adjust final liposome concentration. Peptide concentration was added to obtain 1∶30 or 1∶15 peptide:liposome ratio. Changes in the fluorescence signal after addition of peptide or Triton X-100 was measured on a PTI spectrofluorometer, using an excitation wavelength of 480 nm and emission wavelength of 512 nm. The Percentage calcein released at each time point was calculated using the equation, [drawing 1]
Where A0 is the observed fluorescence intensity upon addition of peptides, Amin is the average intensity at the baseline (before peptide addition), Amax is the average intensity at the saturation phase after adding 1% Triton X-100. Similar protocol was followed for the preparation of PC/Cholesterol SUVs.

[6] = Isothermal titration calorimetry; format: binding; conditions: PC SUVs, 15% ergosterol, 25°C
Experimental: ITC experiments were performed using a Microcal VP-ITC Calorimeter (Microcal, Northampton, MA, USA). SUVs, B4010, and polyene antifungals were dissolved in 10 mM HEPES buffered saline at pH 7.2. […] A total of 40 injections were performed and the heat of reaction produced by each injection was determined by integration of heat flow traces. In a separate experiment, the heat of dilution was determined by titrating SUVs into the buffer solution (without peptide). The heat of dilution was subtracted from the heat changes determined in the peptide/antifungal-liposome experiments.

F. solani ATCC36031 = experiment: microbe, parasite or virus in culture; format: cell-based; conditions: Fusarium solani; F. solani ATCC36031
F. solani DM3782 = experiment: microbe, parasite or virus in culture; format: cell-based; conditions: Fusarium solani; F. solani DM3782
F. solani DF1500 = experiment: microbe, parasite or virus in culture; format: cell-based; conditions: Fusarium solani; F. solani DF1500
C. albicans ATCC 10231 = experiment: Time-kill kinetics assay; format: cell-based; conditions: 16× MIC
Experimental: as §2

[7] = ATCC10231, Table 3, read-out: MIC in µM against Ca 10231
[8] = ATCC2091, Table 3, read-out: MIC in µM against Ca 2091
[9] = ATCC24433, Table 3, read-out: MIC in µM against Ca 24433
[10] = DF1976R, Table 3, read-out: MIC in µM against Ca DF1976R
[11] = DF2672R, Table 3, read-out: MIC in µM against Ca 2672R

C[C@@H]1[C@H](O)[C@@H](C)/C=C/C=C/C=C/C=C/C=C/C=C/C=C/[C@H](O[C@@H]2O[C@H](C)[C@@H](O)[C@H](N)[C@@H]2O)C[C@@H]2O[C@](O)(C[C@@H](O)C[C@@H](O)[C@H](O)CC[C@@H](O)C[C@@H](O)CC(=O)O[C@H]1C)C[C@H](O)[C@H]2C(=O)O [Amphotericin B, reference compound]
MIC (C. albicans ATCC10231; [7]): 1.35 µM (≈ 1.25 µg/mL) | MIC (C. albicans ATCC2091; [8]): < 0.4 µM | MIC (C. albicans ATCC24433; [9]): 1.35 µM (≈ 1.25 µg/mL) | MIC (C. albicans DF1976R; [10]): 1.35 µM (≈ 1.25 µg/mL) | MIC (C. albicans DF2672R [1]; [11]): 1.35 µM (≈ 1.25 µg/mL) | MIC [2]: 1.4 µM (≈ 1.29 µg/mL) | time to maximal effect (C. albicans DF2672R [3]; 16× MIC): less than 8 h | HC50 (rabbit red blood cells): 59.4 ± 7.8 µM | EC50 [4]: 134 ± 16 µM | % Calcein released from PC/PE/PS/Erg [5]: 0% | affinity for membrane bound ergosterol (ITC) [6]: strong affinity

C[C@@H]1C/C=C/C=C/C=C/C=C/[C@H](O[C@@H]2O[C@H](C)[C@@H](O)[C@H](N)[C@@H]2O)C[C@@H]2O[C@](O)(C[C@@H](O)C[C@H]3O[C@@H]3/C=C/C(=O)O1)C[C@H](O)[C@H]2C(=O)O [Natamycin, reference compound]
MIC (C. albicans ATCC10231; [7]): 15 µM (≈ 9.99 µg/mL) | MIC (C. albicans ATCC10231; C. albicans ATCC10231, read-out: MIC): 15 µM (≈ 9.99 µg/mL) | MIC (C. albicans ATCC2091; [8]): 7.5 µM (≈ 4.99 µg/mL) | MIC (C. albicans ATCC2091; C. albicans ATCC2091, read-out: MIC): 7.5 µM (≈ 4.99 µg/mL) | MIC (C. albicans ATCC24433; [9]): 15 µM (≈ 9.99 µg/mL) | MIC (C. albicans ATCC24433; C. albicans ATCC24433, read-out: MIC): 15 µM (≈ 9.99 µg/mL) | MIC (C. albicans DF1976R; [10]): 15 µM (≈ 9.99 µg/mL) | MIC (C. albicans DF1976R; C. albicans DF1976R, read-out: MIC): 15 µM (≈ 9.99 µg/mL) | MIC (C. albicans DF2672R [1]; [11]): 15 µM (≈ 9.99 µg/mL) | MIC (C. albicans DF2672R [1]; C. albicans DF2672R, read-out: MIC): 15 µM (≈ 9.99 µg/mL) | MIC (F. solani ATCC36031): 4.7 µM (≈ 3.13 µg/mL) | MIC (F. solani DM3782): 2.4 µM (≈ 1.6 µg/mL) | MIC (F. solani DF1500): 2.4 µM (≈ 1.6 µg/mL) | MIC [2]: 15 µM (≈ 9.99 µg/mL) | time required to achieve similar endpoints (4 log reduction) (C. albicans ATCC 10231): 24 h | fungicidal action (C. albicans DF2672R [3]; 2× MIC, 24 h exposure): no fungicidal action | HC50 (rabbit red blood cells): 139.6 ± 0.18 µM | EC50 [4]: 212 ± 20.5 µM | % Calcein released from PC/PE/PS/Erg [5]: 0%
